Results reported in US11261152B2, “Inhibitors of the N-terminal domain of the androgen receptor” (The Regents of the University of California, priority 2017, dated 2022).

Assays:
[1] = system: AR transcriptional activity (MMTV reporter); assay: MMTV reporter assay; assay type: cell-based; settings: Table 3 grade HIGH/MED/LOW, grades not defined
[2] = system: AR positive PCa cells (LNCaP, LNCaP-AR, CWR22, 22Rv1, LAPC4); assay: MTT / CellTiter GLO cell viability, AR positive prostate cancer cells; settings: for MTT AR-Pos: Table 3 grade HIGH/MED/LOW, grades not defined
Procedure: (§1) The results are means of quadruplicate expts±s.d. Top panel: CellTiter GLO luminescent bioassay (arbitrary units on vertical axis). Bottom panel: classical MTT assay ([blue/yellow]=[viable/non-viable]).
(§2) Experiments were performed in quadruplicate; results are means+/−s.d.
Results were normalized to that of vehicle control. Experiments were performed in quadruplicate; results are means+/−s.d.
Next, the effects of the compounds on growth of prostate cancer cell lines in vitro were evaluated.

[3] = system: AR-null PCa cells (DU145, PC3); assay: MTT / CellTiter GLO cell viability, AR-null prostate cancer cells; settings: Table 3 grade HIGH/MED/LOW, grades not defined
Procedure: as §1, §2
AR null PC3 cells were exposed to the indicated compounds for 6 days; cell viability was measured by MTT assay. Results were normalized to that of vehicle control. Experiments were performed in quadruplicate; results are means+/−s.d.
For each compound and concentration in the figure, the bars represent relative cell viability of 22Rv1, LAPC4, and DU145, from left to right.
For each compound and concentration in the figure, the bars represent relative cell viability of CWR22 and PC3, from left to right.

[4] = system: androgen response element (ARE); assay: ARE reporter assay (tandem copies of the androgen response element); assay type: cell-based; settings: for ARE: Table 3 grade HIGH/MED/LOW, grades not defined
Procedure: FIG. 11A. Effects of JN series compounds in reporter assays for androgen response element. Experiments were performed in triplicate and results are means+/−s.d.

[5] = system: glucocorticoid response element (GRE) / glucocorticoid receptor; assay: GRE reporter assay; assay type: cell-based; settings: Table 3 grade HIGH/MED/LOW, grades not defined
Procedure: FIG. 11B. Effects of JN series compounds in reporter assays for glucocorticoid response element. Experiments were performed in triplicate and results are means+/−s.d.

SMILES	MMTV [1]	MTT AR-Pos [2]	other results
CN(CCC(=O)/C(=C\c1ccc(Cl)cc1)c1ccccc1)Cc1ccccc1 [JN001, (Z)-5-(Benzyl(methyl)amino)-1-(4-chlorophenyl)-2-phenylpent-1-en-3-one]	LOW	–	–
CN(CCC(=O)/C(=C\c1ccc(Cl)cc1)c1ccccc1)Cc1ccccc1.Cl [JN002, (Z)-5-(Benzyl(methyl)amino)-1-(4-chlorophenyl)-2-phenylpent-1-en-3-one hydrochloride]	LOW	–	–
C=CC(=O)/C(=C\c1ccc(Cl)cc1)c1ccccc1 [JN004, (Z)-1-(4-Chlorophenyl)-2-phenylpenta-1,4-dien-3-one]	LOW	–	–
C=CC(O)/C(=C/c1ccc(Cl)cc1)c1ccccc1 (centres unmarked) [JN005, (E)-1-(4-Chlorophenyl)-2-phenylpenta-1,4-dien-3-ol]	MED	–	–
Cl.O=C(CCN1CCCC1)/C(=C\c1ccc(Cl)cc1)c1ccccc1 [JN006]	LOW	–	–
CN(C)CCC(=O)/C(=C\c1ccc(Cl)cc1)c1ccccc1.Cl [JN007]	MED	–	–
CN1CCN(CCC(=O)/C(=C\c2ccc(Cl)cc2)c2ccccc2)CC1.Cl [JN009]	LOW	–	–
C=CC(O)/C(=C\c1ccc(Br)cc1)c1ccccc1 (centres unmarked) [JN010]	LOW	–	–
C=CC(O)/C(=C\c1ccc(F)cc1)c1ccccc1 (centres unmarked) [JN011]	MED	–	–
C=CC(O)/C(=C\c1ccc(C)cc1)c1ccccc1 (centres unmarked) [JN012]	LOW	–	–
C=CC(O)/C(=C/c1ccc(C)cc1)c1ccccc1 (centres unmarked) [JN013]	MED	–	–
C=CC(O)/C(=C\c1ccc(OC)cc1)c1ccccc1 (centres unmarked) [JN014]	MED	–	–
COc1ccc(/C=C(\C(=O)CCN(C)C)c2ccccc2)cc1.Cl [JN016]	HIGH	–	–
C=C(CN(C)Cc1ccccc1)C(=O)/C(=C\c1ccc(Cl)cc1)c1ccccc1.Cl [JN019]	–	LOW	–
C=C(CN(C)Cc1ccccc1)C(=O)/C(=C\c1ccc(Br)cc1)c1ccccc1.Cl [JN020]	LOW	LOW	–
C=C(CN(C)Cc1ccccc1)C(=O)/C(=C/c1ccc(Br)cc1)c1ccccc1.Cl [JN021]	LOW	LOW	MTT AR-Neg [3]: MED
C=C(CN(C)C)C(=O)/C(=C\c1ccc(Cl)cc1)c1ccccc1.Cl [JN023]	LOW	LOW	MTT AR-Neg [3]: LOW
C=C(C)C(=O)/C(=C\c1ccc(Cl)cc1)c1ccccc1 [JN025]	HIGH	LOW	ARE [4]: HIGH; MTT AR-Neg [3]: MED
C/C(=C\c1ccc(Cl)cc1)C(=O)c1ccccc1 [JN026, (E)-3-(4-Chlorophenyl)-2-methyl-1-phenylprop-2-en-1-one]	LOW	–	ARE [4]: LOW
O=C(/C(=C/c1ccc(Cl)cc1)CN1CCCC1)c1ccccc1 [JN028]	HIGH	–	ARE [4]: HIGH
O=C(/C(=C/c1ccc(Cl)cc1)CN1CCOCC1)c1ccccc1 [JN029]	HIGH	–	ARE [4]: HIGH
CN(C/C(=C\c1ccc(F)cc1)C(=O)c1ccccc1)Cc1ccccc1 [JN030]	MED	–	ARE [4]: MED

SMILES	MMTV [1]	MTT AR-Pos [2]	other results
CN(C/C(=C\c1ccc(Cl)c(Cl)c1)C(=O)c1ccccc1)Cc1ccccc1 [JN031]	LOW	–	ARE [4]: LOW
C=C(C)C(=O)/C(=C/c1ccc(Cl)cc1)c1ccccc1 [JN032]	HIGH	HIGH	MTT AR-Neg [3]: LOW
C=C(C)C(O)/C(=C/c1ccc(Cl)cc1)c1ccccc1 (centres unmarked) [JN033]	MED	LOW	MTT AR-Neg [3]: LOW
C=C(C)C(O)/C(=C\c1ccc(Cl)cc1)c1ccccc1 (centres unmarked) [JN034]	MED	MED	MTT AR-Neg [3]: LOW
CC(C)CN(C/C(=C\c1ccc(Cl)cc1)C(=O)c1ccccc1)CC(C)C [JN035]	HIGH	–	–
CC(C)N(C/C(=C\c1ccc(Cl)cc1)C(=O)c1ccccc1)C(C)C [JN036]	HIGH	MED/HIGH	MTT AR-Neg [3]: LOW/MED
O=C(/C(=C/c1ccc(Cl)cc1)CN1CCCCC1)c1ccccc1 [JN037]	MED	–	–
CN1CCN(C/C(=C\c2ccc(Cl)cc2)C(=O)c2ccccc2)CC1 [JN038]	HIGH	HIGH	MTT AR-Neg [3]: MED
CN(C/C(=C\c1cccc(Br)c1)C(=O)c1ccccc1)Cc1ccccc1 [JN040]	HIGH	–	–
CN(C/C(=C\c1ccccc1Br)C(=O)c1ccccc1)Cc1ccccc1.Cl [JN041]	HIGH	–	–
CN(C/C(=C\c1cccc(Cl)c1Cl)C(=O)c1ccccc1)Cc1ccccc1.Cl [JN042]	HIGH	–	–
CN(C/C(=C\c1ccc(Cl)cc1Cl)C(=O)c1ccccc1)Cc1ccccc1.Cl [JN045]	HIGH	–	–
CN(C/C(=C\c1ccccc1Cl)C(=O)c1ccccc1)Cc1ccccc1.Cl [JN046]	HIGH	–	–
CN(C/C(=C\c1ccccc1)C(=O)c1ccccc1)Cc1ccccc1 [JN047]	HIGH	–	–
Cc1ccccc1/C=C(\CN(C)Cc1ccccc1)C(=O)c1ccccc1 [JN049]	HIGH	–	–
C=C(CN(C)Cc1ccccc1)C(=O)/C(=C/c1ccc(F)cc1)c1ccccc1.Cl [JN054]	MED	LOW	–
C=C(CN(C)Cc1ccccc1)C(=O)/C(=C\c1ccc(F)cc1)c1ccccc1.Cl [JN055]	MED	–	ARE [4]: MED; GRE [5]: HIGH
C=C(CN(C)Cc1ccccc1)C(=O)/C(=C\c1ccc(OC)cc1)c1ccccc1.Cl [JN056]	LOW	–	–
C=C(CN(C)Cc1ccccc1)C(=O)/C(=C/c1ccc(Cl)c(Cl)c1)c1ccccc1.Cl [JN057]	MED	MED	MTT AR-Neg [3]: MED; GRE [5]: HIGH
C=C(CN(C)Cc1ccccc1)C(=O)/C(=C\c1ccc(Cl)c(Cl)c1)c1ccccc1.Cl [JN058]	LOW	–	–
C=C(CN(C)Cc1ccccc1)C(=O)C(=Cc1ccco1)c1ccccc1.Cl [JN061]	LOW	–	–
C=C(CN(C)Cc1ccccc1)C(=O)/C(=C/c1ccccc1)c1ccccc1.Cl [JN062]	LOW	HIGH	MTT AR-Neg [3]: HIGH

SMILES	MMTV [1]	MTT AR-Pos [2]	other results
C=C(CN(C)Cc1ccccc1)C(=O)/C(=C\c1ccccc1)c1ccccc1.Cl [JN063]	MED	–	–
C=C(CN(C)Cc1ccccc1)C(=O)/C(=C\c1ccc(C(F)(F)F)cc1)c1ccccc1.Cl [JN065]	HIGH	MED	MTT AR-Neg [3]: LOW
C=C(CN(C)Cc1ccccc1)C(=O)/C(=C/c1ccc(C)cc1)c1ccccc1.Cl [JN066]	LOW	–	–
C=C(CN(C)Cc1ccccc1)C(=O)/C(=C\c1ccc(C)cc1)c1ccccc1.Cl [JN067]	LOW	–	–
C=C(CN(C)Cc1ccccc1)C(=O)/C(=C/c1cc(Cl)cc(Cl)c1)c1ccccc1.Cl [JN068]	LOW	–	–
C=C(CN(C)Cc1ccccc1)C(=O)/C(=C/c1cccc(F)c1)c1ccccc1.Cl [JN069]	MED	–	–
C=C(CN(C)Cc1ccccc1)C(=O)/C(=C\c1cccc(Br)c1)c1ccccc1.Cl [JN070]	MED	–	–
C=C(CN(C)Cc1ccccc1)C(=O)/C(=C/c1cccc(Br)c1)c1ccccc1.Cl [JN071]	LOW	–	–
C=C(CN(C)Cc1ccccc1)C(=O)/C(=C\c1cccc(C(F)(F)F)c1)c1ccccc1.Cl [JN072]	LOW	–	–
C=C(CN(C)Cc1ccccc1)C(=O)/C(=C/c1cccc(C(F)(F)F)c1)c1ccccc1.Cl [JN073]	LOW	–	–
C=C(CN(C)Cc1ccccc1)C(=O)/C(=C/c1ccc(Cl)cc1)c1ccc(Cl)cc1.Cl [JN074]	HIGH	HIGH	MTT AR-Neg [3]: HIGH
C=C(CN(C)Cc1ccccc1)C(=O)/C(=C/c1ccc(Cl)cc1)c1cccc(Cl)c1.Cl [JN075]	MED	HIGH	MTT AR-Neg [3]: HIGH
C=C(CN(C)Cc1ccccc1)C(=O)/C(=C/c1ccc(Cl)cc1)c1ccccc1Cl.Cl [JN076]	HIGH	HIGH	MTT AR-Neg [3]: MED
C=C(CN1CCCCC1)C(=O)/C(=C/c1ccc(Cl)cc1)c1ccccc1.Cl [JN077]	HIGH	LOW	MTT AR-Neg [3]: LOW
C=C(CN1CCCC1)C(=O)/C(=C/c1ccc(Cl)cc1)c1ccccc1.Cl [JN078]	LOW	–	–
C=C(CN1CCNCC1)C(=O)/C(=C/c1ccc(Cl)cc1)c1ccccc1.Cl [JN079]	LOW	–	–
C=C(CN(C)Cc1ccccc1)C(=O)/C(=C/c1ccc(Cl)cc1)c1ccc(N=[N+]=[N-])cc1.Cl [JN080]	HIGH	LOW	MTT AR-Neg [3]: LOW
C=C(CN(C)Cc1ccccc1)C(=O)/C(=C\c1ccc(Cl)cc1)c1ccc(N=[N+]=[N-])cc1.Cl [JN081]	MED	–	–
C=C(CN(C)Cc1ccccc1)C(=O)/C(=C/c1ccc(Cl)c(F)c1)c1ccccc1.Cl [JN082]	LOW	LOW	ARE [4]: LOW; MTT AR-Neg [3]: LOW
C=C(CN(C)Cc1ccccc1)C(=O)/C(=C/c1ccc(Cl)cc1F)c1ccccc1.Cl [JN083]	HIGH	MED	ARE [4]: LOW; MTT AR-Neg [3]: MED
O=C(CC1CO1)/C(=C/c1ccc(Cl)cc1)c1ccccc1 (centres unmarked) [JN097, (E)-4-(4-Chlorophenyl)-1-(oxiran-2-yl)-3-phenylbut-3-en-2-one]	–	–	growth inhibitory / suppressive effects as compared to JN018 ([2]; result in words): enhanced growth inhibitory effects; reporter activity driven by the ARE ([4]; result in words): inhibited reporter activity
C=C(C)C(=O)NC(=O)/C(=C/c1cccs1)c1ccccc1 [JN128]	–	–	growth of AR expressing prostate cancer cells ([2]; result in words): selective growth inhibitory effects
